The values that follow come from BindingDB's records for doi:10.1021/jm010294e (Novartis Institute For Biomedical Reasearch, 2001).

This assay deals with Apolipoprotein B-100 (Homo sapiens, UniProt P04114). The assay is described as follows: Inhibition of apolipoprotein B (apoB) secreted by human hepatoma cells (Hep G2) […].
Chain of Apolipoprotein B-100 (P04114 whole entry C1422Y): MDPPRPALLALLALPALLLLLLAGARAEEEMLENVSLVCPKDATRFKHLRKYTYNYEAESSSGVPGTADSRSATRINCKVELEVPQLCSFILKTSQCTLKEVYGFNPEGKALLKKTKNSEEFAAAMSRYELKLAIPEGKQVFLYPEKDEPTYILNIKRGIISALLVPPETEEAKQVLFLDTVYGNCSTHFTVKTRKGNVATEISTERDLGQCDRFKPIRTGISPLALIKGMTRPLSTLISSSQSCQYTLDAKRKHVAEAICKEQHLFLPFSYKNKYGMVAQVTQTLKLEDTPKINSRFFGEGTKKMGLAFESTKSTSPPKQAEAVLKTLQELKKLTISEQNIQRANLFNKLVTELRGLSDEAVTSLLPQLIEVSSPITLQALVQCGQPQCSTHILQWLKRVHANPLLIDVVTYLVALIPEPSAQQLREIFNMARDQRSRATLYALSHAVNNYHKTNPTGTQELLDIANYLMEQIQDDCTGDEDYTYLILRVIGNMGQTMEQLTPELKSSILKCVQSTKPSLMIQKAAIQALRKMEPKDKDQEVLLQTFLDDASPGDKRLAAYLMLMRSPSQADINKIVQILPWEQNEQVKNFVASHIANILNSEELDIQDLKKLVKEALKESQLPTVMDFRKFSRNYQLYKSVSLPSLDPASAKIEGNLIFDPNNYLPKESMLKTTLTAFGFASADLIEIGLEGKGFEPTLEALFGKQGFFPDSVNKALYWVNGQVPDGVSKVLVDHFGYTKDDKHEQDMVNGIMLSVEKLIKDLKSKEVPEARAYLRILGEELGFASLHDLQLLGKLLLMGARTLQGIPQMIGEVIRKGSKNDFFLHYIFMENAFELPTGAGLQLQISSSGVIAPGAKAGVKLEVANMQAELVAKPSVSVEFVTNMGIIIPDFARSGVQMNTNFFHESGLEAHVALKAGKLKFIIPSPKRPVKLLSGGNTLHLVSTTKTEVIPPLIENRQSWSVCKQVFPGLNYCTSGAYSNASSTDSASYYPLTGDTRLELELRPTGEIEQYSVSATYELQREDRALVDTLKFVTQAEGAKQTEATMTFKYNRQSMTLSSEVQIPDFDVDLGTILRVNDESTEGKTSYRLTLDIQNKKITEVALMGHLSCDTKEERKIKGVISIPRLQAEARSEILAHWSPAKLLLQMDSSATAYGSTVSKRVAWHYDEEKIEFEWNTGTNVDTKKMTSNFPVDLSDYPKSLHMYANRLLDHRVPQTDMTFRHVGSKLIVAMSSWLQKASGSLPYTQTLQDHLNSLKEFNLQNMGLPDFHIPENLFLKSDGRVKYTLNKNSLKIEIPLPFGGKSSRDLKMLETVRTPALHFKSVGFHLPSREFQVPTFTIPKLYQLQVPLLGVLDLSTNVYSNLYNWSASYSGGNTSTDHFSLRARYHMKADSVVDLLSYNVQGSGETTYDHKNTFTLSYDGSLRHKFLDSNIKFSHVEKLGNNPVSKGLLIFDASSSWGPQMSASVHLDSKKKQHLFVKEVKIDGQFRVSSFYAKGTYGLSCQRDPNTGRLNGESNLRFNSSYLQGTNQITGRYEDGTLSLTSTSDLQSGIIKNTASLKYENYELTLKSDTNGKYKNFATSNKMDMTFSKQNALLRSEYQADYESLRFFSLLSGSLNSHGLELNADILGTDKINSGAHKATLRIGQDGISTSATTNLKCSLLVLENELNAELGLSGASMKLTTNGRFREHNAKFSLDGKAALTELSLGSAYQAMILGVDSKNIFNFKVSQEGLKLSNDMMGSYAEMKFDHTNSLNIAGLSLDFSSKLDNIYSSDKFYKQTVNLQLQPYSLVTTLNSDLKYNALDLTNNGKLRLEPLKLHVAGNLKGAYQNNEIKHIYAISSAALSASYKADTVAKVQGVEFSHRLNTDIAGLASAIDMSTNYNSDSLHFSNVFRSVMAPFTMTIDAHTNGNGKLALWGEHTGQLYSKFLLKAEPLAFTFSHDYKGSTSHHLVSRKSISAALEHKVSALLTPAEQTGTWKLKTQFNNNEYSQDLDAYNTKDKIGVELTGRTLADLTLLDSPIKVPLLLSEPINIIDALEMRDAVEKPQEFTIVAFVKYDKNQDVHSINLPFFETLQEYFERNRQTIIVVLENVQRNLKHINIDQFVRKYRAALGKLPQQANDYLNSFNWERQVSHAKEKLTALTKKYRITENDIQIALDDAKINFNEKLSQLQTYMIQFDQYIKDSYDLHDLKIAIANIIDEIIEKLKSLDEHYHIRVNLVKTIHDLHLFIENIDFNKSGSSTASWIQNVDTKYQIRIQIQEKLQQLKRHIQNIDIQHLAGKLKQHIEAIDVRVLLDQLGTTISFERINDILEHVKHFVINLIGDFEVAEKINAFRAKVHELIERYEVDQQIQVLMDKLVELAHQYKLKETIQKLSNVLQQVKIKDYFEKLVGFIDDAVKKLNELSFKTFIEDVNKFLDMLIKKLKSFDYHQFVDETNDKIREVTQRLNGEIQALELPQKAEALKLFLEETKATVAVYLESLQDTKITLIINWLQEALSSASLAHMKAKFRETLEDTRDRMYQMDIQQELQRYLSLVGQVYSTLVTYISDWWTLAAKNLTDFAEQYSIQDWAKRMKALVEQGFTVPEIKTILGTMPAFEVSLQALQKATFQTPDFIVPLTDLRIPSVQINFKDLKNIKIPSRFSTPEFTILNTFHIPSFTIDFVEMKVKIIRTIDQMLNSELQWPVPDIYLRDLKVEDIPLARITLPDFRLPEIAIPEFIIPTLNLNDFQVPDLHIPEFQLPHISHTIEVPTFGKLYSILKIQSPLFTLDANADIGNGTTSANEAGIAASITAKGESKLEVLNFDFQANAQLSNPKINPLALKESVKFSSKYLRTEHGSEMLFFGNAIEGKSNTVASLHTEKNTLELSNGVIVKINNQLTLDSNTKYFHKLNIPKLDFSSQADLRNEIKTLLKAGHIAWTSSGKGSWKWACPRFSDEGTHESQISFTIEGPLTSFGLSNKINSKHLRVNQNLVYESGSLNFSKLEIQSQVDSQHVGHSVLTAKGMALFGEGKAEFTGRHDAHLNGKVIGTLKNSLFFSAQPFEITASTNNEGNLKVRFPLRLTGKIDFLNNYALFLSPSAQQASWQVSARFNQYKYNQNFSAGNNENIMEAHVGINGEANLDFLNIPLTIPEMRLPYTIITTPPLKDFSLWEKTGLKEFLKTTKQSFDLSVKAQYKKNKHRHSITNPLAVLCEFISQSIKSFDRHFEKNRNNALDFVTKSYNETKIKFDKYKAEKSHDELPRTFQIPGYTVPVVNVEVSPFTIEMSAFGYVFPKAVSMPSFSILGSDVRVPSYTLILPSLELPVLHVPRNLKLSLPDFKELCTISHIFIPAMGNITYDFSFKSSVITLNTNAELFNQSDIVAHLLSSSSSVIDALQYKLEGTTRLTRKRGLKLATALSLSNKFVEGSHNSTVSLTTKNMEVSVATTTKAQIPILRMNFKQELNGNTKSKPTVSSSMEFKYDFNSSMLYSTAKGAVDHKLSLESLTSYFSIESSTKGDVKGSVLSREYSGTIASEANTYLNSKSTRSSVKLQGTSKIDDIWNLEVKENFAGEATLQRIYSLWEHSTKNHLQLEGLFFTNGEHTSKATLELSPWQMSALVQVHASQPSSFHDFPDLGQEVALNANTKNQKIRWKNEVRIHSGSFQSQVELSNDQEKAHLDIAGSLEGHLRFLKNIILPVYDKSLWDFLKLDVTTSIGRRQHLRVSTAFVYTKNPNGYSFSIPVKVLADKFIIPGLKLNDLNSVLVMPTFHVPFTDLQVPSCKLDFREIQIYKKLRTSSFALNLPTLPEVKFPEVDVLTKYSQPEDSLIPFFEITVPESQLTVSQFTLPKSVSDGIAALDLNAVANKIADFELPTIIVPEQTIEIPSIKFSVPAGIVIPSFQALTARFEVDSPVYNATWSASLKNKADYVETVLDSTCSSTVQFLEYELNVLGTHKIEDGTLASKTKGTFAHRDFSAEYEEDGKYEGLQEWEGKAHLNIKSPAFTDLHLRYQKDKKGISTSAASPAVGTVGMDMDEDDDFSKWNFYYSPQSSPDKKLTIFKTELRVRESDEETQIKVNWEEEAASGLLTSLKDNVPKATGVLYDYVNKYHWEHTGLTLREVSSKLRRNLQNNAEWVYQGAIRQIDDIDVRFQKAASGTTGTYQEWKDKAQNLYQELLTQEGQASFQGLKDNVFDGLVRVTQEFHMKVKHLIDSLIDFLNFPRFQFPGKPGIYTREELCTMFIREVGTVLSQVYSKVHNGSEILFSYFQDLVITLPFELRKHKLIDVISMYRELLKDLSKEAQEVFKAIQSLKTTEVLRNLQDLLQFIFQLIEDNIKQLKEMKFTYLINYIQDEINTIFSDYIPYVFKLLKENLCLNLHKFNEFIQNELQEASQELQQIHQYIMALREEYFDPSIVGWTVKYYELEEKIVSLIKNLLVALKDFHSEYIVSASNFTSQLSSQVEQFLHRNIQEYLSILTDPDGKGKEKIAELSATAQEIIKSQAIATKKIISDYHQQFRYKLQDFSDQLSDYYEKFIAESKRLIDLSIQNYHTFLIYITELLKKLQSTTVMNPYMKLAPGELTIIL
The IC50 is the midpoint of a concentration-inhibition curve. The low end stands for inhibition by little substance, the high end for a need for much substance. In turn, `COc1cccc(C(=O)Nc2ccc3c(c2)CC(NS(=O)(=O)c2ccccc2)C3)c1-c1ccc(Cl)cc1` (stereo not given) [4'-Chloro-6-methoxy-biphenyl-2-carboxylic acid (2-benzenesulfonylamino-indan-5-yl)-amide] yielded an IC50 of 2 nM.

For the molecule `COc1cccc(C(=O)Nc2ccc3c(c2)CC(NS(C)(=O)=O)C3)c1-c1ccc(Cl)cc1` (stereo not given) [4'-Chloro-6-methoxy-biphenyl-2-carboxylic acid (2-methanesulfonylamino-indan-5-yl)-amide], the half-maximal inhibitory concentration (IC50) was determined as 15 nM.

The molecule `Cc1cccc(C(=O)Nc2ccc3c(c2)CC(NS(=O)(=O)c2ccccc2)C3)c1-c1ccc(Cl)cc1` (stereo not given) [4'-Chloro-6-methyl-biphenyl-2-carboxylic acid (2-benzenesulfonylamino-indan-5-yl)-amide] showed an IC50 of 2.4 nM. This IC50 lies about 6.2-fold lower than the previous one.

Consider `Cc1cccc(C(=O)Nc2ccc3c(c2)CC(NS(C)(=O)=O)C3)c1-c1ccc(Cl)cc1` (stereo not given) [4'-Chloro-6-methyl-biphenyl-2-carboxylic acid (2-methanesulfonylamino-indan-5-yl)-amide], for which the midpoint of inhibition, the IC50, lay at 6.6 nM. Against the preceding molecule, the IC50 is about 2.8-fold higher.

`Cc1cccc(C(=O)Nc2ccc3c(c2)CCC(NS(C)(=O)=O)CC3)c1-c1ccc(Cl)cc1` (stereo not given) [4'-Chloro-6-methyl-biphenyl-2-carboxylic acid (7-methanesulfonylamino-6,7,8,9-tetrahydro-5H-benzocyclohepten-2-yl)-amide] came in with an IC50 of 5 nM.

Turning to `Cc1cccc(C(=O)Nc2ccc3c(c2)CC(CNS(C)(=O)=O)C3)c1-c1ccc(Cl)cc1` (stereo not given) [4'-Chloro-6-methyl-biphenyl-2-carboxylic acid [2-(methanesulfonylamino-methyl)-indan-5-yl]-amide], inhibition was half-maximal at 16 nM (IC50).

For the molecule `Cc1cccc(C(=O)Nc2ccc3c(c2)CC(NS(=O)(=O)c2cccs2)C3)c1-c1ccc(Cl)cc1` (stereo not given) [4'-Chloro-6-methyl-biphenyl-2-carboxylic acid [2-(thiophene-2-sulfonylamino)-indan-5-yl]-amide], the IC50 was 3 nM.

As for `Cc1cccc(C(=O)Nc2ccc3c(c2)CC(NS(=O)(=O)c2ccccc2)C3)c1-c1ccc(C#N)cc1` (stereo not given) [4'-Cyano-6-methyl-biphenyl-2-carboxylic acid (2-benzenesulfonylamino-indan-5-yl)-amide], 5.5 nM corresponded to half-maximal inhibition (IC50).

`Cc1cccc(C(=O)Nc2ccc3c(c2)CC(NS(=O)(=O)c2ccccc2)C3)c1-c1ccc(F)cc1` (stereo not given) [4'-Fluoro-6-methyl-biphenyl-2-carboxylic acid (2-benzenesulfonylamino-indan-5-yl)-amide] came in with a concentration for half-maximal inhibition (IC50) of 1.2 nM.

On to `Cc1cccc(C(=O)Nc2ccc3c(c2)CC(NS(C)(=O)=O)C3)c1-c1ccc(F)cc1` (stereo not given) [4'-Fluoro-6-methyl-biphenyl-2-carboxylic acid (2-methanesulfonylamino-indan-5-yl)-amide], for which the IC50 turned out to be 8.3 nM.

As for `Cc1cccc(C(=O)Nc2ccc3c(c2)CC(NS(=O)(=O)c2cccs2)C3)c1-c1ccc(F)cc1` (stereo not given) [4'-Fluoro-6-methyl-biphenyl-2-carboxylic acid [2-(thiophene-2-sulfonylamino)-indan-5-yl]-amide], inhibition was half-maximal at 1.4 nM (IC50).

For the molecule `CC(=O)NC1Cc2ccc(NC(=O)c3ccccc3-c3ccc(C(F)(F)F)cc3)cc2C1` (stereo not given) [4'-Trifluoromethyl-biphenyl-2-carboxylic acid (2-acetylamino-indan-5-yl)-amide], the IC50 came out at 120 nM.

In turn, `O=C(Nc1ccc2c(c1)CC(NS(=O)(=O)c1ccccc1)C2)c1ccccc1-c1ccc(C(F)(F)F)cc1` (stereo not given) [4'-Trifluoromethyl-biphenyl-2-carboxylic acid (2-benzenesulfonylamino-indan-5-yl)-amide] showed an IC50 of 1.3 nM. Compared with the last molecule, the IC50 is about 92-fold lower.

`O=C(Nc1ccc2c(c1)C[C@@H](NS(=O)(=O)c1ccccc1)C2)c1ccccc1-c1ccc(C(F)(F)F)cc1` [4'-Trifluoromethyl-biphenyl-2-carboxylic acid (2-benzenesulfonylamino-indan-5-yl)-amide]: the concentration for half-maximal inhibition (IC50) stood at 42 nM.

As for `O=C(NC1Cc2ccc(NC(=O)c3ccccc3-c3ccc(C(F)(F)F)cc3)cc2C1)c1ccccc1` (stereo not given) [4'-Trifluoromethyl-biphenyl-2-carboxylic acid (2-benzoylamino-indan-5-yl)-amide], the half-maximal inhibitory concentration (IC50) came to 270 nM.

For `O=C(Nc1ccc2c(c1)CC(NCc1ccccc1)C2)c1ccccc1-c1ccc(C(F)(F)F)cc1` (stereo not given) [4'-Trifluoromethyl-biphenyl-2-carboxylic acid (2-benzylamino-indan-5-yl)-amide], the half-maximal inhibitory concentration (IC50) came to 340 nM.

Regarding `CS(=O)(=O)NC1Cc2ccc(NC(=O)c3ccccc3-c3ccc(C(F)(F)F)cc3)cc2C1` (stereo not given) [4'-Trifluoromethyl-biphenyl-2-carboxylic acid (2-methanesulfonylamino-indan-5-yl)-amide], the concentration for half-maximal inhibition (IC50) stood at 60 nM.

Regarding `CN(C)C(=O)NC1Cc2ccc(NC(=O)c3ccccc3-c3ccc(C(F)(F)F)cc3)cc2C1` (stereo not given) [4'-Trifluoromethyl-biphenyl-2-carboxylic acid [2-(3,3-dimethyl-ureido)-indan-5-yl]-amide], the concentration for half-maximal inhibition (IC50) amounted to 120 nM.

In turn, `Cc1cc(C)c(-c2ccc(C(F)(F)F)cc2)c(C(=O)Nc2ccc3c(c2)C[C@@H](NS(=O)(=O)c2cccs2)C3)c1` [4,6-Dimethyl-4'-trifluoromethyl-biphenyl-2-carboxylic acid [2-(thiophene-2-sulfonylamino)-indan-5-yl]-amide] displayed an IC50 of 2.6 nM.

As to `Cc1cc(C)c(-c2ccc(C(F)(F)F)cc2)c(C(=O)Nc2ccc3c(c2)C[C@H](NS(=O)(=O)c2cccs2)C3)c1` [4,6-Dimethyl-4'-trifluoromethyl-biphenyl-2-carboxylic acid [2-(thiophene-2-sulfonylamino)-indan-5-yl]-amide], the half-inhibitory concentration (IC50) was determined as 1 nM.

In the case of `COC(=O)N1CCN([C@@H]2Cc3ccc(NC(=O)c4cccc(C)c4-c4ccc(C(F)(F)F)cc4)cc3C2)CC1` [4-{5-[(6-Methyl-4'-trifluoromethyl-biphenyl-2-carbonyl)-amino]-indan-2-yl}-piperazine-1-carboxylic acid methyl ester], the concentration for half-maximal inhibition (IC50) was determined as 43 nM. Against the preceding molecule, the IC50 is about 43-fold higher.

The molecule `COC(=O)N1CCN([C@H]2Cc3ccc(NC(=O)c4cccc(C)c4-c4ccc(C(F)(F)F)cc4)cc3C2)CC1` [4-{5-[(6-Methyl-4'-trifluoromethyl-biphenyl-2-carbonyl)-amino]-indan-2-yl}-piperazine-1-carboxylic acid methyl ester] came in with a 50% inhibitory concentration (IC50) of 1.8 nM. Against the preceding molecule, the IC50 is about 24-fold lower.

As to `Cc1ccc(-c2c(C)cccc2C(=O)Nc2ccc3c(c2)CC(NS(=O)(=O)c2ccccc2)C3)cc1` (stereo not given) [6,4'-Dimethyl-biphenyl-2-carboxylic acid (2-benzenesulfonylamino-indan-5-yl)-amide], it took 2.5 nM to reach half-maximal inhibition (IC50).

`Cc1cccc(C(=O)Nc2ccc3c(c2)C[C@@H](NS(C)(=O)=O)C3)c1-c1ccc(C(F)(F)F)cc1` [6-Methyl-4'-trifluoromethyl-biphenyl-2-carboxylic acid (2-methanesulfonylamino-indan-5-yl)-amide] had a 50% inhibitory concentration (IC50) of 8.8 nM.

Molecule `Cc1cccc(C(=O)Nc2ccc3c(c2)C[C@H](NS(C)(=O)=O)C3)c1-c1ccc(C(F)(F)F)cc1` [6-Methyl-4'-trifluoromethyl-biphenyl-2-carboxylic acid (2-methanesulfonylamino-indan-5-yl)-amide] yielded an IC50 of 1.8 nM.

Take `Cc1cccc(C(=O)Nc2ccc3c(c2)CCC(NS(C)(=O)=O)CC3)c1-c1ccc(C(F)(F)F)cc1` (stereo not given) [6-Methyl-4'-trifluoromethyl-biphenyl-2-carboxylic acid (7-methanesulfonylamino-6,7,8,9-tetrahydro-5H-benzocyclohepten-2-yl)-amide]: the concentration for half-maximal inhibition (IC50) was 2.3 nM.

Molecule `Cc1cccc(C(=O)Nc2ccc3c(c2)CC(CNS(C)(=O)=O)C3)c1-c1ccc(C(F)(F)F)cc1` (stereo not given) [6-Methyl-4'-trifluoromethyl-biphenyl-2-carboxylic acid [2-(methanesulfonylamino-methyl)-indan-5-yl]-amide] registered an IC50 of 6.5 nM.

In turn, `Cc1cccc(C(=O)Nc2ccc3c(c2)C[C@H](NS(=O)(=O)c2cccs2)C3)c1-c1ccc(C(F)(F)F)cc1` [6-Methyl-4'-trifluoromethyl-biphenyl-2-carboxylic acid [2-(thiophene-2-sulfonylamino)-indan-5-yl]-amide] registered an IC50 of 0.9 nM.

`Cc1cccc(C(=O)Nc2ccc3c(c2)CCC(NS(=O)(=O)c2cccs2)CC3)c1-c1ccc(C(F)(F)F)cc1` (stereo not given) [6-Methyl-4'-trifluoromethyl-biphenyl-2-carboxylic acid [7-(thiophene-2-sulfonylamino)-6,7,8,9-tetrahydro-5H-benzocyclohepten-2-yl]-amide]: it took 1.6 nM to reach half-maximal inhibition (IC50).

`Cc1cccc(C(=O)Nc2ccc3c(c2)CC(CNS(=O)(=O)c2cccs2)C3)c1-c1ccc(C(F)(F)F)cc1` (stereo not given) [6-Methyl-4'-trifluoromethyl-biphenyl-2-carboxylic acid {2-[(thiophene-2-sulfonylamino)-methyl]-indan-5-yl}-amide] yielded a half-maximal inhibitory concentration (IC50) of 1.9 nM. The IC50 values of the last two molecules are within 1.5-fold of each other.

In turn, `COC(=O)NCCC1Cc2ccc(NC(=O)c3cccc(C)c3-c3ccc(C(F)(F)F)cc3)cc2C1` (stereo not given) [(2-{5-[(6-Methyl-4'-trifluoromethyl-biphenyl-2-carbonyl)-amino]-indan-2-yl}-ethyl)-carbamic acid methyl ester] registered a half-maximal inhibitory concentration (IC50) of 10 nM.

The molecule `COC(=O)N[C@@H]1Cc2ccc(NC(=O)c3cccc(C)c3-c3ccc(C(F)(F)F)cc3)cc2C1` [(R)-methyl 5-(6-methyl-4'-(trifluoromethyl)biphenyl-2-ylcarboxamido)-2,3-dihydro-1H-inden-2-ylcarbamate] displayed a 50% inhibitory concentration (IC50) of 6.4 nM. Compared with the last molecule, the IC50 is about 1.6-fold lower.

The molecule `Cc1cccc(C(=O)Nc2ccc3c(c2)C[C@@H](NCc2ccccn2)C3)c1-c1ccc(C(F)(F)F)cc1` [(S)-6-methyl-N-(2-(pyridin-2-ylmethylamino)-2,3-dihydro-1H-inden-5-yl)-4'-(trifluoromethyl)biphenyl-2-carboxamide] gave an IC50 of 1.7 nM.

`O=C(Nc1ccc2c(c1)CC(NS(=O)(=O)c1ccccc1)C2)c1ccccc1-c1ccccc1` (stereo not given) [Biphenyl-2-carboxylic acid (2-benzenesulfonylamino-indan-5-yl)-amide]: the IC50 came to 12 nM. Against the preceding molecule, the IC50 is about 7.1-fold higher.

`COC(=O)NC1CCc2ccc(NC(=O)c3cccc(C)c3-c3ccc(Cl)cc3)cc2CC1` (stereo not given) [{2-[(4'-Chloro-6-methyl-biphenyl-2-carbonyl)-amino]-6,7,8,9-tetrahydro-5H-benzocyclohepten-7-yl}-carbamic acid methyl ester] gave an IC50 of 2 nM.
